Assay results reported in patent US9211310B2, “Use of a Chinese medicine composition in preparing medicaments for treating secondary prevention of myocardial infarction” (TASLY PHARMACEUTICAL GROUP CO., LTD, priority 2010, dated 2015).

Test system: patients after acute myocardial infarction
Assay: Life quality, Seattle Angina Questionnaire (SAQ), same clinical trial
Type: in vivo, human
Source text: 3508 patients who were in accordance with the diagnostic standards of AMI for 28 days to 2 years and differentiated as Qi deficiency and blood stagnation syndrome by TCM were studied. 0.5 g Chinese medicine composition prepared by the method of EXAMPLE 1 (Coded as QSYQ) was administrated half an hour after meal, 3 times per day.
There were 19 questions in the Seattle angina questionnaire (SAQ), including 5 parts: physical limitation (PL), anginal stability (AS), anginal frequency (AF), treatment satisfaction (TS) and disease perception (DP). After being given necessary explanation by doctors, the questions were answered independently by patients.
They included the overall survival time, angina pectoris score, TCM symptom score and life quality score, where angina pectoris score, TCM symptom score and life quality score were evaluated at randomization, in 1st, 3rd, 6th, 9th, 12th month after treatment and 18th month after follow-up.
All evaluation results of SAQ were described during the period of observation, and Wilcoxon rank sum test was used for inter-group comparison.
The evaluation results in the SAQ were depicted in different observations, and inter-group comparison was tested by Wilcoxon Rank-sum test.

Q: How did the “SAQ 2nd question: Slightly increased, cases” value (1 month after treatment, PP) turn out when `CC(=O)Oc1ccccc1C(=O)O` [Control group, aspirine] was run?
A: 43

Q: And the “SAQ 2nd question: Slightly reduced, % of cases” value (1 month after treatment, PP)?
A: (30.18%)

Q: And the “SAQ 2nd question: Slightly reduced, cases” value (1 month after treatment, PP)?
A: 447

Q: What about the “SAQ 3rd question: 1-2 times per week, % of cases” value (1 month after treatment, PP) of the same molecule?
A: (30.18%)

Q: What about the “SAQ 3rd question: 1-2 times per week, cases” value (1 month after treatment, PP) of the same molecule?
A: 447

Q: What about the “SAQ 3rd question: 1-3 times per day, % of cases” value (1 month after treatment, PP) of the same molecule?
A: (2.90%)

Q: What about the “SAQ 3rd question: 1-3 times per day, cases” value (1 month after treatment, PP) of the same molecule?
A: 43

Q: What about the “SAQ 3rd question: <1 time per week, % of cases” value (1 month after treatment, PP) of the same molecule?
A: (16.75%)

Q: And the “SAQ 3rd question: <1 time per week, cases” value (1 month after treatment, PP)?
A: 248

Q: And the “SAQ 3rd question: No onset, % of cases” value (1 month after treatment, PP)?
A: (0.00%)

Q: What about the “SAQ 3rd question: No onset, cases” value (1 month after treatment, PP) of the same molecule?
A: 0

Q: And the “SAQ 3rd question: ≧3 times per week, % of cases” value (1 month after treatment, PP)?
A: (49.63%)

Q: And the “SAQ 3rd question: ≧3 times per week, cases” value (1 month after treatment, PP)?
A: 735

Q: What about the “SAQ 3rd question: ≧4 times per day, % of cases” value (1 month after treatment, PP) of the same molecule?
A: (0.54%)

Q: And the “SAQ 3rd question: ≧4 times per day, cases” value (1 month after treatment, PP)?
A: 8

Q: What about the “SAQ Question 1-3: Mildly limited, number of patients” value (1 month after treatment, PP) of the same molecule?
A: 114

Q: What about the “SAQ Question 1-3: Mildly limited, percent of patients” value (1 month after treatment, PP) of the same molecule?
A: (7.67%)

Q: And the “SAQ Question 1-3: Moderately limited, number of patients” value (1 month after treatment, PP)?
A: 25

Q: And the “SAQ Question 1-3: Moderately limited, percent of patients” value (1 month after treatment, PP)?
A: (1.68%)

Q: What about the “SAQ Question 1-3: Not limited, number of patients” value (1 month after treatment, PP) of the same molecule?
A: 1064

Q: What about the “SAQ Question 1-3: Not limited, percent of patients” value (1 month after treatment, PP) of the same molecule?
A: (71.60%)

Q: And the “SAQ Question 1-3: Other reasons, number of patients” value (1 month after treatment, PP)?
A: 7

Q: What about the “SAQ Question 1-3: Other reasons, percent of patients” value (1 month after treatment, PP) of the same molecule?
A: (0.47%)

Q: What about the “SAQ Question 1-3: Severely limited, number of patients” value (1 month after treatment, PP) of the same molecule?
A: 5

Q: And the “SAQ Question 1-3: Severely limited, percent of patients” value (1 month after treatment, PP)?
A: (0.34%)

Q: And the “SAQ Question 1-3: Slightly limited, number of patients” value (1 month after treatment, PP)?
A: 271

Q: What about the “SAQ Question 1-3: Slightly limited, percent of patients” value (1 month after treatment, PP) of the same molecule?
A: (18.24%)

Q: What about the “SAQ Question 1-4: Mildly limited, number of patients” value (1 month after treatment, PP) of the same molecule?
A: 303

Q: And the “SAQ Question 1-4: Mildly limited, percent of patients” value (1 month after treatment, PP)?
A: (20.43%)

Q: And the “SAQ Question 1-4: Moderately limited, number of patients” value (1 month after treatment, PP)?
A: 138

Q: And the “SAQ Question 1-4: Moderately limited, percent of patients” value (1 month after treatment, PP)?
A: (9.31%)

Q: What about the “SAQ Question 1-4: Not limited, number of patients” value (1 month after treatment, PP) of the same molecule?
A: 521

Q: What about the “SAQ Question 1-4: Not limited, percent of patients” value (1 month after treatment, PP) of the same molecule?
A: (35.13%)

Q: What about the “SAQ Question 1-4: Other reasons, number of patients” value (1 month after treatment, PP) of the same molecule?
A: 11

Q: And the “SAQ Question 1-4: Other reasons, percent of patients” value (1 month after treatment, PP)?
A: (0.74%)

Q: And the “SAQ Question 1-4: Severely limited, number of patients” value (1 month after treatment, PP)?
A: 27

Q: What about the “SAQ Question 1-4: Severely limited, percent of patients” value (1 month after treatment, PP) of the same molecule?
A: (1.82%)

Q: And the “SAQ Question 1-4: Slightly limited, number of patients” value (1 month after treatment, PP)?
A: 483

Q: And the “SAQ Question 1-4: Slightly limited, percent of patients” value (1 month after treatment, PP)?
A: (32.57%)

Q: And the “SAQ Question 1-5: Mildly limited, number of patients” value (1 month after treatment, PP)?
A: 278

Q: And the “SAQ Question 1-5: Mildly limited, percent of patients” value (1 month after treatment, PP)?
A: (18.76%)

Q: And the “SAQ Question 1-5: Moderately limited, number of patients” value (1 month after treatment, PP)?
A: 166

Q: And the “SAQ Question 1-5: Moderately limited, percent of patients” value (1 month after treatment, PP)?
A: (11.20%)

Q: What about the “SAQ Question 1-5: Not limited, number of patients” value (1 month after treatment, PP) of the same molecule?
A: 546

Q: And the “SAQ Question 1-5: Not limited, percent of patients” value (1 month after treatment, PP)?
A: (36.84%)

Q: What about the “SAQ Question 1-5: Other reasons, number of patients” value (1 month after treatment, PP) of the same molecule?
A: 9

Q: What about the “SAQ Question 1-5: Other reasons, percent of patients” value (1 month after treatment, PP) of the same molecule?
A: (0.61%)

Q: What about the “SAQ Question 1-5: Severely limited, number of patients” value (1 month after treatment, PP) of the same molecule?
A: 24

Q: And the “SAQ Question 1-5: Severely limited, percent of patients” value (1 month after treatment, PP)?
A: (1.62%)

Q: And the “SAQ Question 1-5: Slightly limited, number of patients” value (1 month after treatment, PP)?
A: 459

Q: What about the “SAQ Question 1-5: Slightly limited, percent of patients” value (1 month after treatment, PP) of the same molecule?
A: (30.97%)

Q: And the “SAQ Question 1-9: Mildly limited, % of cases” value (1 month after treatment, PP)?
A: (16.54%)

Q: What about the “SAQ Question 1-9: Mildly limited, cases” value (1 month after treatment, PP) of the same molecule?
A: 239

Q: And the “SAQ Question 1-9: Moderately limited, % of cases” value (1 month after treatment, PP)?
A: (21.45%)

Q: And the “SAQ Question 1-9: Moderately limited, cases” value (1 month after treatment, PP)?
A: 310

Q: What about the “SAQ Question 1-9: Not limited, % of cases” value (1 month after treatment, PP) of the same molecule?
A: (2.98%)

Q: What about the “SAQ Question 1-9: Not limited, cases” value (1 month after treatment, PP) of the same molecule?
A: 43

Q: What about the “SAQ Question 1-9: Other reasons, % of cases” value (1 month after treatment, PP) of the same molecule?
A: (6.44%)

Q: And the “SAQ Question 1-9: Other reasons, cases” value (1 month after treatment, PP)?
A: 93

Q: And the “SAQ Question 1-9: Severely limited, % of cases” value (1 month after treatment, PP)?
A: (42.70%)

Q: And the “SAQ Question 1-9: Severely limited, cases” value (1 month after treatment, PP)?
A: 617

Q: And the “SAQ Question 1-9: Slightly limited, % of cases” value (1 month after treatment, PP)?
A: (9.90%)

Q: What about the “SAQ Question 1-9: Slightly limited, cases” value (1 month after treatment, PP) of the same molecule?
A: 143

Q: And the “SAQ 2nd question: Clearly increased, % of cases” value (3 months after treatment, FAS)?
A: (0.92%)

Q: And the “SAQ 2nd question: Clearly increased, cases” value (3 months after treatment, FAS)?
A: 16

Q: And the “SAQ 2nd question: Clearly reduced, % of cases” value (3 months after treatment, FAS)?
A: (21.15%)

Q: And the “SAQ 2nd question: Clearly reduced, cases” value (3 months after treatment, FAS)?
A: 368

Q: And the “SAQ 2nd question: Same, % of cases” value (3 months after treatment, FAS)?
A: (42.13%)

Q: And the “SAQ 2nd question: Same, cases” value (3 months after treatment, FAS)?
A: 733

Q: What about the “SAQ 2nd question: Slightly increased, % of cases” value (3 months after treatment, FAS) of the same molecule?
A: (3.79%)

Q: What about the “SAQ 2nd question: Slightly increased, cases” value (3 months after treatment, FAS) of the same molecule?
A: 66

Q: What about the “SAQ 2nd question: Slightly reduced, % of cases” value (3 months after treatment, FAS) of the same molecule?
A: (32.01%)

Q: And the “SAQ 2nd question: Slightly reduced, cases” value (3 months after treatment, FAS)?
A: 557

Q: What about the “SAQ 3rd question: 1-2 times per week, % of cases” value (3 months after treatment, FAS) of the same molecule?
A: (32.01%)

Q: What about the “SAQ 3rd question: 1-2 times per week, cases” value (3 months after treatment, FAS) of the same molecule?
A: 557

Q: What about the “SAQ 3rd question: 1-3 times per day, % of cases” value (3 months after treatment, FAS) of the same molecule?
A: (3.79%)

Q: And the “SAQ 3rd question: 1-3 times per day, cases” value (3 months after treatment, FAS)?
A: 66
